US20230219956A1 (BETTA PHARMACEUTICALS CO.,LTD, priority 2019, published 2023)

Legend:
[1] = system: CALU-1 cells; assay: Cell proliferation assay, CALU-1 cells (Cell-titer Glo); type: cell-based; conditions: Homo sapiens, 120 h incubation
Procedure: The CALU-1 cells were spread on a 96-well ultra-low adsorption plate with 1000 cells and 190 μL/well. After incubating overnight, compound solutions of gradient concentration was prepared, and added 10 μL of DMSO solution of the test compound of each concentration to the cells of each well. The final concentration of the compound is 30000, 10000, 3333.3, 1111.1, 370.4, 123.5, 41.2, 13.7, 4.6, 0 nM (the final concentration of DMSO is 0.25%). Incubated for 120 h at 37° C. and 5% CO2. 60 μL of Cell-titer Glo working solution was added to each well, shaked and mixed, and incubated at room temperature for 10 minutes. The multi-functional microplate reader read the luminescence value, and converted the luminescence value reading into inhibition percentage.
Inhibition percentage=(maximum value−reading)/(maximum value−minimum value)*100.
The “maximum value” was the DMSO control, the “minimum value” indicates the cell-free control group.
Graphpad Prism software was used to perform curve fitting and obtain IC50 value.
The compounds of the examples have good inhibition on CALU-1 cells, and their activity is better than that of ARS-1620. Refer to Table 2 for the IC50 data of some compounds in the examples inhibiting CALU-1 cells.

[2] = system: MIA-PACA-2 cells; assay: Cell proliferation assay, MIA-PACA-2 cells (Cell-titer Glo); type: cell-based; conditions: Homo sapiens, 96 h incubation
Procedure, shortened: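 MIA-PACA-2 cells, 600 per well in ultra-low-attachment plates, exposed 96 h at 37 °C to compound at 0.025–10000 nM final (0.25% DMSO). Viability by CellTiter-Glo luminescence; inhibition normalised to DMSO and cell-free controls, IC50 from curve fit.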

[3] = Permeability assay, Caco-2 monolayer cell model; type: in vitro ADME; conditions: human, Caco-2, compound 5 μM, Verapamil 0 μM; for efflux ratio at 120 min, 5 μM: read-out: RE (Efflux Ratio)
Procedure: The Caco-2 monolayer cell model was used to determine the bidirectional permeability and efflux rate of the example compounds and the comparative compounds. In the experiment, 50 μL of 6.86×10^5 cells/mL Caco-2 cells (passage 45) were seeded into 96-well cell culture plates, and cultured continuously for 14-18 days for transport experiments. The corresponding compound was administered bidirectionally with or without verapamil (P glycoprotein (P-gp) inhibitor), at a concentration of 5 μM. At 37° C., after incubating with shaking at 150 rpm for 120 minutes, the top and basal samples were collected, and the content of each compound in the samples was determined by liquid chromatography tandem mass spectrometry (LC/MS/MS).
Refer to the Table 4 for permeability data of some compounds in the examples.

[4] = system: H358 cells; assay: Cell proliferation assay, H358 cells (Cell-titer Glo); type: cell-based; conditions: Homo sapiens, NCI-H358, 96 h incubation
Procedure, shortened: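 H358 cells, 2000 per well in ultra-low-attachment plates, treated after overnight culture with compound at 10000 to 1.5 nM plus 0 (0.25% DMSO final) for 96 h at 37 °C, 5% CO2. Cell-titer Glo luminescence, normalised to DMSO and cell-free controls; IC50 from curve fit.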

| Structure (SMILES) | IC50 [1] [nM] | IC50 [2] [nM] | Papp A→B at 120 min, 5 μM [3] [×10⁻⁶ cm/s] | Papp B→A at 120 min, 5 μM [3] [×10⁻⁶ cm/s] | efflux ratio at 120 min, 5 μM [3] | IC50 [4] [nM] |
| --- | --- | --- | --- | --- | --- | --- |
| C=CC(=O)N1CC2(CCN(c3nc(C4CCN(C)CC4)nc4c(OCC(F)(F)F)c(-c5c(C)ccc6[nH]ncc56)c(C=C)cc34)CC2)C1 [Compound 1, 1-(7-(7-(5-methyl-1H-indazol-4-yl)-2-(1 methylpiperidin-4-yl)-8-(2,2,2-trifluoroethoxy)-6-vinylquinazolin-4-yl)-2,7-diazaspiro[3.5]nonan-2-yl)prop-2-en-1-one] | 2.7 |  | 0.51 | 7.18 | 14.2 |  |
| C=CC(=O)N1CC2(CCN(c3nc(C4CCN(C)CC4)nc4c(OCC(F)(F)F)c(-c5c(C)ccc6[nH]ncc56)c(CC)cc34)CC2)C1 [Compound 4, 1-(7-(6-ethyl-7-(5-methyl-1H-indazol-4-yl)-2-(1-methylpiperidin-4-yl)-8-(2,2,2-trifluoroethoxy)quinazolin-4-yl)-2,7-diazaspiro[3.5]nonan-2-yl)prop-2-en-1-one] | 2.9 |  | 0.21 | 9.64 | 46.5 |  |
| C=CC(=O)N1CC2(CCN(c3nc(C4CCN(C)CC4)nc4c(F)c(-c5c(C)ccc6[nH]ncc56)c(C=C)cc34)CC2)C1 [Compound 5, 1-(7-(8-fluoro-7-(5-methyl-1H-indazol-4-yl)-2-(1-methylpiperidin-4-yl)-synthesis of 6-vinylquinazolin-4-yl)-2,7-diazaspiro[3.5]nonan-2-yl)prop-2-en-1-one] | 103 |  |  |  |  |  |
| C=CC(=O)N1CC2(CCN(c3nc(C4CCOCC4)nc4c(OCC(F)(F)F)c(-c5c(C)ccc6[nH]ncc56)c(C=C)cc34)CC2)C1 [Compound 6, 1-(7-(7-(5-methyl-1H-indazol-4-yl)-2-(tetrahydro-2H-pyran-4-yl)-8-(2,2,2-trifluoroethoxy)-6-vinylquinazolin-4-yl)-2,7-diazaspiro[3.5]nonan-2-yl)prop-2-en-1-one] | 45.7 |  |  |  |  |  |
| C=CC(=O)N1CC2(CCN(c3nc(C4CCN(C)C4)nc4c(OCC(F)(F)F)c(-c5c(C)ccc6[nH]ncc56)c(C=C)cc34)CC2)C1 (stereo not shown) [Compound 8] | 4.6 |  |  |  |  |  |
| C=CC(=O)N1CC2(CCN(c3nc(C4CCN(C(C)=O)CC4)nc4c(OCC(F)(F)F)c(-c5c(C)ccc6[nH]ncc56)c(C=C)cc34)CC2)C1 [Example 14, 1-(7-(2-(1-acetylpiperidin-4-yl)-7-(5-methyl-1H-indazol-4-yl)-8-(2,2,2-trifluoroethoxy)-6-vinylquinazolin-4-yl)-2,7-diazaspiro[3.5]nonan-2-yl)prop-2-en-1-one] |  | 40.6 | 1.33 | 5.82 | 4.36 | 6.4 |
| C=Cc1cc2c(N3CCC4(CC3)CN(C(=O)C(=C)F)C4)nc(C3CCN(C)CC3)nc2c(OCC(F)(F)F)c1-c1c(C)ccc2[nH]ncc12 [Example 84, 2-Fluoro-1-(7-(7-(5-methyl-1H-indazol-4-yl)-2-(1-methylpiperidin-4-yl)-8-(2,2,2-trifluoroethoxy)-6-vinylquinazolin-4-yl)-2,7-diazaspiro[3.5]nonan-2-yl)propan-2-en-1-one] |  | 60.3 |  |  |  | 16.5 |
| Cc1ccc2[nH]ncc2c1-c1c(Cl)cc2c(N3CCC4(CC3)CN(C(=O)/C=C/CN(C)C)C4)nc(C3CCN(C)CC3)nc2c1OCC(F)(F)F [Example 87, (E)-1-(7-(6-chloro-7-(5-methyl-1H-indazol-4-yl)-2-(1-methylpiperidine-4-yl)-8-(2,2,2-trifluoroethoxy)quinazolin-4-yl)-2,7-diazaspiro[3.5]nonan-2-yl)-4-(dimethylamino) but-2-en-1-one] |  | 2190 |  |  |  | 1940 |

Next, values leading:

| IC50 [1] [nM] | IC50 [2] [nM] | Papp A→B at 120 min, 5 μM [3] [×10⁻⁶ cm/s] | Papp B→A at 120 min, 5 μM [3] [×10⁻⁶ cm/s] | efflux ratio at 120 min, 5 μM [3] | IC50 [4] [nM] | Structure (SMILES) |
| --- | --- | --- | --- | --- | --- | --- |
| 245 | 284 |  |  |  |  | C=CC(=O)N1CCN(c2ncnc3c(F)c(-c4c(O)cccc4F)c(Cl)cc23)CC1 [ARS-1620, reference compound] |
|  |  | 0.06 | 6.75 | 113 |  | C=CC(=O)N1CC2(CCN(c3nc(OC4CCN(C5CCOCC5)CC4)nc4c(OCC(F)(F)F)c(-c5c(C)ccc6[nH]ncc56)c(C=C)cc34)CC2)C1 [Compound D1, reference compound] |
|  | 2.6 | 0.34 | 10.3 | 30.6 | 4.4 | C=CC(=O)N1CC2(CCN(c3nc(C4CCN(C5CCOCC5)CC4)nc4c(OCC(F)(F)F)c(-c5c(C)ccc6[nH]ncc56)c(C=C)cc34)CC2)C1 [Example 58, 1-(7-(7-(5-methyl-1H-indazole-4-yl)-2-(1-(tetrahydro-2H-pyran-4-yl)piperidin-4-yl)-8-(2,2,2-trifluoroethoxy)-6-vinylquinazolin-4-yl)-2,7-diazspiro [3.5]nonan-2-yl) propyl-2-en-1-one] |
|  | 91.7 |  |  |  | 124 | C=CC(=O)N1CC2(CCN(c3nc(C4CCN(C(=O)OC)CC4)nc4c(OCC(F)F)c(-c5c(C)ccc6[nH]ncc56)c(C=C)cc34)CC2)C1 [Example 85, Methyl 4-(4-(2-acryloyl-2,7-diazazospiro [3.5]nonan-7-yl)-8-(2,2-difluoroethoxy)-7-(5-methyl-1H-indazole-4-yl)-6-vinylquinazolin-2-yl) piperidine-1-carboxylic acid] |
|  | 208 |  |  |  | 85.8 | C=Cc1cc2c(N3CCC4(CC3)CN(C(=O)C(=C)F)C4)nc(C3CCN(CCC#N)CC3)nc2c(OCC(F)(F)F)c1-c1c(C)ccc2[nH]ncc12 [Example 86, 3-(4-(4-(2-(2-Fluoroacryloyl)-2,7-diazspiro [3.5]nonan-7-yl)-7-(5-methyl-1H-indazole-4-yl)-8-(2,2,2-trifluoroethoxy)-6-vinylquinazolin-2-yl)piperidin-1-yl) propionitrile] |
